One experiment concerns Melatonin receptor. As to the kind of experiment: Melatonin receptor assay using 2-125I-iodo-ML-23. The note with it: female rats: hypothalamus, medulla-pons, hippocampus, cerebellum, striatum, parietal cortex. Format: binding, rat. Here is the method: Tissue sections or isolated cells were suspended in 10 ml/g ice-cold 0.32M sucrose, homogenized in a teflon-glass homogenizer. The homogenate was centrifuged (10000 g-min) the pellet was discarded and the supernatant centrifuged (68000 g-min). The crude membrane pellet was suspended in 2 vol of 50 mM Tris-HCL buffer, pH 7.4 containing 4 mM CaCl2. 2-^125 I-iodo-ML-23 was prepared by iodination of ML-23 with Na^125 I (Amersham) (20 CI/mmol) in the presence of Iodo-Gen. The principal iodination product, 2-^125 I-iodo-ML 23 (^125 I-MLI-23) was separated from unsubstituted ML-23 as described in Example 2. Aliquots of the membrane preparations (200 μg protein/20 μl) were incubated with 40 μl Trisbuffer containing 20-100 nM ^125 I-MLI-23 for 30 min. at 37° C. on a shaking water bath, in the absence or presence of unlabelled melatonin (50 μM). Membranes were then collected by vacuum filtration using GF/C glass fiber filters and washed with 3×4 ml buffer at 4° C. The filters containing bound ^125 I-ML-23 were assayed for radioactivity using a Packard gamma counter. Specific binding was defined as that displaced by 50 μM of non-radioactive melatonin and ranged from 50 to 60% of the total binding at 50 nM ^125 I-MLI-23. […]

The subject of a further experiment is rat hypothalamus. The note with it: cited from earlier work.
In another experiment the test system is adult female rats. As to the kind of experiment: Melatonin block of luteinizing hormone secretion and ovulation in adult female rats at proestrus. The class given is in vivo, rat. The text has this: (2) Melatonin administration to adult female rats in the afternoon of proestrus blocks the phasic secretion of luteinizing hormone and ovulation.
The test system of another experiment is prepubertal male rats. Briefly: Long-term administration to prepubertal male rats: accessory sex organ development and testosterone. Format: in vivo, rat. The text has this: (1) Long-term administration of melatonin (via the drinking water or via intraperitoneal injection) to prepubertal male rats results in retardation of testicular accessory sex organ development.
(4) Long-term administration of ML-23 alone to prepubertal male rats, enhanced testosterone levels in the blood of the animals.

The test system of experiment [1] is Female rats kept under constant illumination. As to the kind of experiment: Ovarian cyclicity of female rats kept under constant illumination. Format: in vivo, rat.
Setting [2] is: oral administration in the presence of melatonin.

The structures appear in SMILES notation.

In the case of `COc1ccc2[nH]c([125I])c(CCNc3ccc([N+](=O)[O-])cc3[N+](=O)[O-])c2c1` [^125 I-MLI-23], the “specific binding in brain regions” value in the experiment on Melatonin receptor is “found”.
For `COc1ccc2[nH]cc(CCNC(C)=O)c2c1` [melatonin, 5-methoxy-N-acetyl-tryptamine], the “stimulated release of dopamine” value in the experiment on rat hypothalamus is on record as “inhibits”. For the same molecule, the “phasic secretion of luteinizing hormone and ovulation” value with adult female rats (administration in the afternoon of proestrus, adult female rats) is recorded as “blocks”. In the experiment with prepubertal male rats (long-term administration via the drinking water or intraperitoneal injection), the “testicular accessory sex organ development” value is “retardation”. Moreover, the ovarian cyclicity entry in experiment [1] (daily melatonin injections, female rats under constant illumination) is reported as “reestablish ovarian cyclicity”.
For `COc1ccc2[nH]cc(CCNc3ccc([N+](=O)[O-])cc3[N+](=O)[O-])c2c1` [ML-23, N-2,4-dinitrophenyl-5-methoxy-tryptamine], the “effect on melatonin block of luteinizing hormone secretion and ovulation” value in the experiment with adult female rats (via the drinking water, female rats given melatonin) is “prevented the effect of melatonin and normal ovulation occurred”. Also, in the experiment on prepubertal male rats (long-term administration alone), the “testosterone levels in the blood” value is given as “enhanced”. For the same molecule, in the experiment on prepubertal male rats (setting [2]), the “effect on melatonin's suppressive effects on prostate and seminal vesicle growth” value is on record as “entirely abolished”; the “effect on melatonin's suppressive effects on serum testosterone levels” value is “entirely abolished”. Moreover, the “ovarian cyclicity re-established by daily melatonin injections” value in experiment [1] (rats treated orally with the antagonist, constant illumination) was “not in rats treated orally with ML-23”.

(Values after patent publication US4880826A, “Melatonin antagonist” (priority 1986, dated 1989).)
